Values quoted from earlier work, collected in patent US20240226034A1, “Use of Terpenoids and Salicylates as Anesthetics and Analgesics” (THE REGENTS OF THE UNIVERSITY OF CALIFORNIA, priority 2021, published 2024).

System: rats
Details: antagonism of spinal GABAA receptors in rats; cited from earlier work

## FC(F)OC(Cl)C(F)(F)F (stereo not shown) [isoflurane]
  increase of EC50 for immobilization: up to 40%
